Test results from ChEMBL document CHEMBL1128840, “Synthesis of myo-inositol-1-phosphatase inhibitors in which the phosphate group is replaced by less polar groups” (Bioorg Med Chem Lett, 1995).

Key:
[1] = biological target: T1, Inositol monophosphatase 1 (Bos taurus, UniProt P20456); experiment: Inhibitory activity against myo-inositol-1-phosphatase
T1 sequence (P20456 whole entry): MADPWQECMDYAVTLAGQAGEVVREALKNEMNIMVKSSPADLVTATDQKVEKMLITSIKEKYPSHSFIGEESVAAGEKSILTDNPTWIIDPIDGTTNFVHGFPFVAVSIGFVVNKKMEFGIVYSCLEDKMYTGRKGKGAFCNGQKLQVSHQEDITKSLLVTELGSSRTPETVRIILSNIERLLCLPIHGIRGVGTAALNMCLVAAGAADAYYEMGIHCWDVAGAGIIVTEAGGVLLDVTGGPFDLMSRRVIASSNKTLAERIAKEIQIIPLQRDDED

[2] = biological target: T1, Inositol monophosphatase 1; experiment: Compound was tested for inhibitory activity against myo-inositol-1-phosphatase; weak inhibitor
[3] = biological target: T1, Inositol monophosphatase 1; experiment: Compound was tested for inhibitory activity against myo-inositol-1-phosphatase; compound was not active at 300 uM

SMILES | IC50 [1] | also measured
O=S(=O)(O)O[C@@H]1[C@H](O)C[C@@H](O)C[C@H]1OCCCCc1ccccc1O | 90 µM | –
O=P(O)(O)O[C@@H]1[C@H](O)C[C@@H](O)C[C@H]1OCCCc1ccccc1 | 0.8 µM | –
CC(C)OP(=O)(O)O[C@@H]1[C@H](O)C[C@@H](O)C[C@H]1OCCCCc1ccccc1O | 50 µM | –
O=C(O)CO[C@@H]1[C@H](O)C[C@@H](O)C[C@H]1OCCCCc1ccccc1O | – | IC50 [2]: > 300 µM
O=C1CCCCC1CCCCO[C@@H]1C[C@H](O)C[C@@H](O)[C@H]1OS(=O)(=O)O (some centres not stated) | 100 µM | –
O=P(O)(O)O[C@@H]1[C@H](O)C[C@@H](O)C[C@H]1OCCCCc1ccccc1O | 0.3 µM | –
CC(=O)NS(=O)(=O)O[C@@H]1[C@H](O)C[C@@H](O)C[C@H]1OCCCCC1CCCCC1=O (some centres not stated) | > 300 µM | –
NS(=O)(=O)O[C@@H]1[C@H](O)C[C@@H](O)C[C@H]1OCCCCC1CCCCC1=O (some centres not stated) | 200 µM | –
NS(=O)(=O)O[C@@H]1[C@H](O)C[C@@H](O)C[C@H]1OCCCCc1ccccc1O | > 300 µM | –
NC(=O)O[C@@H]1[C@H](O)C[C@@H](O)C[C@H]1OCCCCc1ccccc1O | – | IC50 [3]: Not Active
CP(C)(=O)O[C@@H]1[C@H](O)C[C@@H](O)C[C@H]1OCCCCc1ccccc1O | > 300 µM | –
CC(=O)NS(=O)(=O)O[C@@H]1[C@H](O)C[C@@H](O)C[C@H]1OCCCCc1ccccc1O | > 300 µM | –
